Measured values taken from patent US12275731B2, “Azaindole inhibitors of wild-type and mutant forms of LRRK2” (DANA-FARBER CANCER INSTITUTE, INC., priority 2018, dated 2025).

Tests used:
Test in all cases: KinomeScan profiling
Assay type in all cases: binding
BMX = biological target: T1, BMX (Homo sapiens, UniProt P51813); settings: read-out: % control
T1 construct: purchased KinomeScan®
T1 sequence (P51813 1-675): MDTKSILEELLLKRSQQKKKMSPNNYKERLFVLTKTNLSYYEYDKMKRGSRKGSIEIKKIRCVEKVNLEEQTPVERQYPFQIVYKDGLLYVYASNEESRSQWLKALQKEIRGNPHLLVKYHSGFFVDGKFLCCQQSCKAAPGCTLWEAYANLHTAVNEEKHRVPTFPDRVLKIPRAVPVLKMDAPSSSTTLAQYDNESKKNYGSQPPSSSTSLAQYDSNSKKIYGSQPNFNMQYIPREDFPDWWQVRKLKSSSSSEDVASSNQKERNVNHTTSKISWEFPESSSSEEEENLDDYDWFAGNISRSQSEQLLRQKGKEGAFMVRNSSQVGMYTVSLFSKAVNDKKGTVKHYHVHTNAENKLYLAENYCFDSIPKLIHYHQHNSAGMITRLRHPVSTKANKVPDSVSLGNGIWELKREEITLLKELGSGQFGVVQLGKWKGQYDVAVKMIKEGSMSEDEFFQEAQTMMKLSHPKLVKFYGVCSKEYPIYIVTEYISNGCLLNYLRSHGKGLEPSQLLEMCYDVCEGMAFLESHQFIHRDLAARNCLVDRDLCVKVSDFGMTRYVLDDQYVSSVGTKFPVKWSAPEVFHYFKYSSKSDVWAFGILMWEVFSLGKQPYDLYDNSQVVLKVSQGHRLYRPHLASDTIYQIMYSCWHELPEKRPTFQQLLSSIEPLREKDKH
In short: (§1)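 First, compounds in DMSO are added at 1 μM to each of 468 kinase assays. Next, RLU signals are normalised between positive control (0%) and DMSO (100%). Finally, kinases under 35% are flagged active.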

PIK3CA(H1047Y) = biological target: T2, PIK3CA(H1047Y) (Homo sapiens, UniProt P42336, H1047Y); settings: read-out: % control
T2 construct: purchased KinomeScan® (panel service)
T2 sequence (P42336 whole entry H1047Y): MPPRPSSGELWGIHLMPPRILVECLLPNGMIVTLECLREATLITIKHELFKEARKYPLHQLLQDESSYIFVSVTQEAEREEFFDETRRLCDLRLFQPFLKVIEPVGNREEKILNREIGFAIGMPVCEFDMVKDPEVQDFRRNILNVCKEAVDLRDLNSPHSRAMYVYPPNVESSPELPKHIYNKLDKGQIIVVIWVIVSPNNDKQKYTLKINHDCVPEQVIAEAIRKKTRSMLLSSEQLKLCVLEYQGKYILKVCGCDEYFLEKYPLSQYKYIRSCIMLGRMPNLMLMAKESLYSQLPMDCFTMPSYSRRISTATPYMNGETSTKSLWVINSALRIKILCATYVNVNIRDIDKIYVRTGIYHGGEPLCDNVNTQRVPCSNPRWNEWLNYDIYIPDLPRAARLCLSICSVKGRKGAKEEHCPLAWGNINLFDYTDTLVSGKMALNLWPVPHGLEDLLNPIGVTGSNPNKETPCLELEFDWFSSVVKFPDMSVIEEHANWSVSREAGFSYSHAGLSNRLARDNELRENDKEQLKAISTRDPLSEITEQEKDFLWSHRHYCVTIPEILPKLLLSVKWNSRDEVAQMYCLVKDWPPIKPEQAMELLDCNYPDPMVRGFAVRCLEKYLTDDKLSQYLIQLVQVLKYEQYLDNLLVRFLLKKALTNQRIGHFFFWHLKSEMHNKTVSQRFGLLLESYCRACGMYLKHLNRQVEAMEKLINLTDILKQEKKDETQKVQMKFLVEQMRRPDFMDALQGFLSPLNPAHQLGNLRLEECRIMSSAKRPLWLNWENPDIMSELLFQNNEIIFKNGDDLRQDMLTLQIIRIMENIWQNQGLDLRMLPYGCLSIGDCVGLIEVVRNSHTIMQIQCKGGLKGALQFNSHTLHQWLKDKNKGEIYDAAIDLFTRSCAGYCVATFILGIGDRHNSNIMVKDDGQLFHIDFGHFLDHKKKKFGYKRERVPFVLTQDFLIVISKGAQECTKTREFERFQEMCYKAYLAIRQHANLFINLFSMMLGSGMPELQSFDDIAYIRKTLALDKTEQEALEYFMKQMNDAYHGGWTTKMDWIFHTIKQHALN
In short: as §1

GRK4 = GRK4 (Homo sapiens, UniProt P32298); settings: GRK4, 1 μM; read-out: % control
Sequence of GRK4 (P32298 whole entry): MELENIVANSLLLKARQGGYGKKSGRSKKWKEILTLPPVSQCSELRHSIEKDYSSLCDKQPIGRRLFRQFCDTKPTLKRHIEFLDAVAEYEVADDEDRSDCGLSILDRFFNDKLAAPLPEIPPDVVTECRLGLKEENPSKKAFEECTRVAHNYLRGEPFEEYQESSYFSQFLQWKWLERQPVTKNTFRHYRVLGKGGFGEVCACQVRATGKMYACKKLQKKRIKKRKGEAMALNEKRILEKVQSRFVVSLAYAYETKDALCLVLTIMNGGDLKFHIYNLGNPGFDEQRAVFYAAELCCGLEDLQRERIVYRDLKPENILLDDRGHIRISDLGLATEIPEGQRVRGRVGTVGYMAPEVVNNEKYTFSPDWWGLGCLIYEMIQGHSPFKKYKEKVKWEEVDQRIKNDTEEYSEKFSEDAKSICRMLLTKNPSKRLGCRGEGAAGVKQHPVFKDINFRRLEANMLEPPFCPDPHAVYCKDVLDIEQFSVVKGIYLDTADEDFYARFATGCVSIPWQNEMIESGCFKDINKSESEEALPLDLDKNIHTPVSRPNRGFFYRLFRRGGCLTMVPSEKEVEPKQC
In short: as §1

PRKCD = PRKCD (Homo sapiens, UniProt Q05655); settings: read-out: % control
Sequence of PRKCD (Q05655 whole entry): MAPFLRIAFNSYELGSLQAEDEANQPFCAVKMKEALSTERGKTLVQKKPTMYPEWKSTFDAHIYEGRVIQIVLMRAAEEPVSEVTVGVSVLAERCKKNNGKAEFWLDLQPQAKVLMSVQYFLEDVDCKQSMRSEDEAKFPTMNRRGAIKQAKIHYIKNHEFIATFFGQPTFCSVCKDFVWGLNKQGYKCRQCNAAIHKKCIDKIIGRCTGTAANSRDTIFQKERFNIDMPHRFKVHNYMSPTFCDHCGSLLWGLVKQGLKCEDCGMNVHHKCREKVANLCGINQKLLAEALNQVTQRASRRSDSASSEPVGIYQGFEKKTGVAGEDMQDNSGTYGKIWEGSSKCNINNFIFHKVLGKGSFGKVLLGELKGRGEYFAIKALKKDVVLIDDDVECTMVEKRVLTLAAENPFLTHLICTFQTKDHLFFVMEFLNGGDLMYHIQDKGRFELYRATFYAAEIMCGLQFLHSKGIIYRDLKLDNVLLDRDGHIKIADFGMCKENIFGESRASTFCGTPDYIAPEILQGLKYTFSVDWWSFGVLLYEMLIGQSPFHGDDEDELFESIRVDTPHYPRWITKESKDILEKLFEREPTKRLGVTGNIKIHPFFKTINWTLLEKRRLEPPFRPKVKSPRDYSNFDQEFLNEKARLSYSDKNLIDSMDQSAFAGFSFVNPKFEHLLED
In short: as §1

LYN = LYN (Homo sapiens, UniProt P07948); settings: read-out: % control
Sequence of LYN (P07948 whole entry): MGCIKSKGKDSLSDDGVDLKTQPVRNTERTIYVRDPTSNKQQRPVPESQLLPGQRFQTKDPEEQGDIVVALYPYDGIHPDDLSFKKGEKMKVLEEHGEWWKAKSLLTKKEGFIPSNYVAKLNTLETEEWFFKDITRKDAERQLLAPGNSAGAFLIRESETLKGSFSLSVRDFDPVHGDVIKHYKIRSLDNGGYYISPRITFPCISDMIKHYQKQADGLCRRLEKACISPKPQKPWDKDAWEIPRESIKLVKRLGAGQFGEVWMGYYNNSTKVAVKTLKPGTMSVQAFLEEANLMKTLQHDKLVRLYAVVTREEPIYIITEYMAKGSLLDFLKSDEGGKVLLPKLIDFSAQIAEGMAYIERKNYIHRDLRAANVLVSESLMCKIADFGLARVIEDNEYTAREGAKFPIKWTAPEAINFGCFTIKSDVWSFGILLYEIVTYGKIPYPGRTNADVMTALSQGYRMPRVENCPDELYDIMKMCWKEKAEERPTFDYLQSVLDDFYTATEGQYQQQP
In short: as §1

FLT3(D835Y) = biological target: T3, FLT3(D835Y) (Homo sapiens, UniProt P36888, D835Y); settings: read-out: % control
T3 sequence (P36888 27-993 D835Y): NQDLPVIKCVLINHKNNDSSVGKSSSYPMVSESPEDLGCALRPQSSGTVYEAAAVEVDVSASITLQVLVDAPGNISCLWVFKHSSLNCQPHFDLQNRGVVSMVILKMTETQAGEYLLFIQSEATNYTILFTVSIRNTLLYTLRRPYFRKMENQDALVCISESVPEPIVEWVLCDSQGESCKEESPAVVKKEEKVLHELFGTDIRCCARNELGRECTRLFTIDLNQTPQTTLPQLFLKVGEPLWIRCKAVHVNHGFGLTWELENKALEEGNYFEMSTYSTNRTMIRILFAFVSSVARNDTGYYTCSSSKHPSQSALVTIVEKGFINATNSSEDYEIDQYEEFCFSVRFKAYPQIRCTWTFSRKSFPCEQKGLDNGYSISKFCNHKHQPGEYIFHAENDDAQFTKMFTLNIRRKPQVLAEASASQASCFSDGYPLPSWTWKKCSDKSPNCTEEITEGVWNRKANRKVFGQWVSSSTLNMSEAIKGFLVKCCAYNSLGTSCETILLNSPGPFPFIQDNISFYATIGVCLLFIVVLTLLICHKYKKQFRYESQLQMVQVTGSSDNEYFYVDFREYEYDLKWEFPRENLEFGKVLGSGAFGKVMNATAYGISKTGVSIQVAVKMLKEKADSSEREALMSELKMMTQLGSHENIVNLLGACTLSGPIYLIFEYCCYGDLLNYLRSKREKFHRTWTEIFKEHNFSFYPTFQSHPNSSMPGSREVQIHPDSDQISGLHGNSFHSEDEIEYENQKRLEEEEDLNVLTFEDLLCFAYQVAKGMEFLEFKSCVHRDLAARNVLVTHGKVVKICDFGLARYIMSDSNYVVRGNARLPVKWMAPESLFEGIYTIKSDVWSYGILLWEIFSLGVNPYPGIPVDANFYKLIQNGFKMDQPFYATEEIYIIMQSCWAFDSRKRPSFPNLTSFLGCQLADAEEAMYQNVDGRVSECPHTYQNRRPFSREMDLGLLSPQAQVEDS
In short: as §1

CAMK1G = CAMK1G (Homo sapiens, UniProt Q96NX5); settings: read-out: % control
Sequence of CAMK1G (Q96NX5 whole entry): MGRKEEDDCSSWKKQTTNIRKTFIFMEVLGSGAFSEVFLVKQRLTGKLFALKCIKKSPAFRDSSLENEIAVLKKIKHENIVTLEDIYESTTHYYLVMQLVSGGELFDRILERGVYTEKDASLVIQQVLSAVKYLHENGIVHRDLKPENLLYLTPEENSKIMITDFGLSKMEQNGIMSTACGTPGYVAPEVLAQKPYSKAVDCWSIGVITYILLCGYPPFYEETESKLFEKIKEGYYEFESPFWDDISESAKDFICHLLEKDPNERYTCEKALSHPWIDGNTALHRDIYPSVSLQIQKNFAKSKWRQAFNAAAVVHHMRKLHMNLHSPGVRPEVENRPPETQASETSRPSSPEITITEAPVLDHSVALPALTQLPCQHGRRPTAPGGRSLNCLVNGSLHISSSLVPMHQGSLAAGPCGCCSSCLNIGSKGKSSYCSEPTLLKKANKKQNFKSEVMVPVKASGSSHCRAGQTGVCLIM
In short: as §1

LOK = LOK (Homo sapiens, UniProt O94804); settings: read-out: % control
Sequence of LOK (O94804 whole entry): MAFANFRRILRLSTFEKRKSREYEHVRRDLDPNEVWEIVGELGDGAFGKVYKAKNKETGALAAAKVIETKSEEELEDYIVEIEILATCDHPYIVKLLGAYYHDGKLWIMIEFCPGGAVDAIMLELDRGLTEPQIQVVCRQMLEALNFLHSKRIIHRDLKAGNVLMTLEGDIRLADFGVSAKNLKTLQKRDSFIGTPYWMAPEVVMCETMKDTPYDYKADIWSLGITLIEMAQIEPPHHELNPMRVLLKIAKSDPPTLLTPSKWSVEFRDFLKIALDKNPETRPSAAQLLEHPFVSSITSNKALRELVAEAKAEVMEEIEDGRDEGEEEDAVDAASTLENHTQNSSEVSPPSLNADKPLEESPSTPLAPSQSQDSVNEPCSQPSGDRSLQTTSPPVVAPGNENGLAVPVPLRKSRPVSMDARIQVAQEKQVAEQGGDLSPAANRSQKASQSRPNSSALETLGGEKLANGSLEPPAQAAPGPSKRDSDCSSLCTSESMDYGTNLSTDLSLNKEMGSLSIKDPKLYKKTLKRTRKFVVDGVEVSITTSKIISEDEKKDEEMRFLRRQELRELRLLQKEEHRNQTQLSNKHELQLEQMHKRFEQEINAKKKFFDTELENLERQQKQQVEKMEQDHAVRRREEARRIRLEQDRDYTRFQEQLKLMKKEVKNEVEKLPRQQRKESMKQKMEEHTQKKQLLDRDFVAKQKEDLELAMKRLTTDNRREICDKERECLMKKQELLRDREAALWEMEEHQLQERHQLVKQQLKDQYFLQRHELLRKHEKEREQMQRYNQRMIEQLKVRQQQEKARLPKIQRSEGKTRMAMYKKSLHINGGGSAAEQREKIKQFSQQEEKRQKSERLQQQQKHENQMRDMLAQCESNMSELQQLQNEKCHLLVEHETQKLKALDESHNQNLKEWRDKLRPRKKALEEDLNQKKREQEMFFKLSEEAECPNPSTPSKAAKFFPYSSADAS
In short: as §1

LIMK1 = LIMK1 (Homo sapiens, UniProt P53667); settings: LIMK1, 1 μM; read-out: % control
Sequence of LIMK1 (P53667 whole entry): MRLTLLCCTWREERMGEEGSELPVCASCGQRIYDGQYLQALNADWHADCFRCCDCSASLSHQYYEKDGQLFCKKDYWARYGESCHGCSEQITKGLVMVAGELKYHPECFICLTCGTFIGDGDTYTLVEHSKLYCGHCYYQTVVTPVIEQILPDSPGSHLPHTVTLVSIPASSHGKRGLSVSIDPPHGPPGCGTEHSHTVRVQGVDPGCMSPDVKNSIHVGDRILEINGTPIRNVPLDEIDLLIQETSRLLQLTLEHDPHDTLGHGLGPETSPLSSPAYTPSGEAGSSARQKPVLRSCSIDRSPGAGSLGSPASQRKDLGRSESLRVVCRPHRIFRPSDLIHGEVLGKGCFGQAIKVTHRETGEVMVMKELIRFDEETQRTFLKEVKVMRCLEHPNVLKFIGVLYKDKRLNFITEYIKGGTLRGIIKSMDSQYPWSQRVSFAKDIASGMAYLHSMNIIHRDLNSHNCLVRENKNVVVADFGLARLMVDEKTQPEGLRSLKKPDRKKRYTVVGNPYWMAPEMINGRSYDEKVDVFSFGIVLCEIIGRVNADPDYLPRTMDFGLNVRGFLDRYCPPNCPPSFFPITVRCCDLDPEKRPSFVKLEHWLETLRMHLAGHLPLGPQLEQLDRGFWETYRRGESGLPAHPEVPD
In short: as §1

Compound: CNc1c(-c2ccc(C(=O)N3CCC(N4CCOCC4)CC3)cc2)cnc2[nH]cc(Cl)c12 [Compound 96, (4-(3-chloro-4-(methylamino)-1H-pyrrolo[2,3-b]pyridin-5-yl)phenyl)(4-morpholinopiperidin-1-yl)methanone]
- remaining binding at 1 µM (BMX): 93%
- remaining binding at 1 µM (PIK3CA(H1047Y)): 84%
- remaining binding at 1 µM (GRK4): 28%
- remaining binding at 1 µM (PRKCD): 94%
- remaining binding at 1 µM (LYN): 100%
- remaining binding at 1 µM (FLT3(D835Y)): 11%
- remaining binding at 1 µM (CAMK1G): 98%
- remaining binding at 1 µM (LOK): 88%
- remaining binding at 1 µM (LIMK1): 100%

Compound: O=C(c1ccc(-c2cnc3[nH]cc(Cl)c3c2NC2CCCC2)cc1)N1CCC(N2CCOCC2)CC1 [Compound 101, (4-(3-chloro-4-(cyclopentylamino)-1H-pyrrolo[2,3-b]pyridin-5-yl)phenyl)(4-morpholinopiperidin-1-yl)methanone]
- remaining binding at 1 µM (BMX): 34%
- remaining binding at 1 µM (PIK3CA(H1047Y)): 100%
- remaining binding at 1 µM (GRK4): 14%
- remaining binding at 1 µM (PRKCD): 88%
- remaining binding at 1 µM (LYN): 100%
- remaining binding at 1 µM (FLT3(D835Y)): 33%
- remaining binding at 1 µM (CAMK1G): 93%
- remaining binding at 1 µM (LOK): 81%
- remaining binding at 1 µM (LIMK1): 76%

Compound: CNc1c(-c2cnn([C@H]3CCN(C(C)=O)C[C@@H]3F)c2)cnc2[nH]cc(Cl)c12 [Compound 77, 1-((3S,4S)-4-(4-(3-chloro-4-(methylamino)-1H-pyrrolo[2,3-b]pyridin-5-yl)-1H-pyrazol-1-yl)-3-fluoropiperidin-1-yl)ethan-1-one]
- remaining binding at 1 µM (BMX): 88%
- remaining binding at 1 µM (PIK3CA(H1047Y)): 70%
- remaining binding at 1 µM (GRK4): 21%
- remaining binding at 1 µM (PRKCD): 100%
- remaining binding at 1 µM (LYN): 99%
- remaining binding at 1 µM (FLT3(D835Y)): 9.7%
- remaining binding at 1 µM (CAMK1G): 100%
- remaining binding at 1 µM (LOK): 99%
- remaining binding at 1 µM (LIMK1): 100%
